The values below come from PubChem BioAssay (NCI).

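Where inhibition never reached the appropriate level, the endpoint shown equals the highest concentration tested. Otherwise, values were interpolated linearly from a five-concentration, 48-hour dose response in 96-well plates. TGI: total growth inhibition.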 A value given as a limit tells only on which side of the number the result lay.

Holding throughout (assay): DTP human tumour cell line panel, 48 h
The test system of experiment [1] is CAKI-1 renal.
The subject of experiment [2] is HCC-2998 colon.
In experiment [3] the test system is MDA-MB-231 breast.
In experiment [4] the test system is MDA-MB-435.
The subject of experiment [5] is MOLT-4 leukemia.
Experiment [6] concerns OVCAR-3 ovarian.
Experiment [7] has as its system OVCAR-4 ovarian.
The test system of experiment [8] is OVCAR-5 ovarian.
For experiment [9], the system named is PC-3 prostate.
The subject of experiment [10] is SK-MEL-2 melanoma.
For experiment [11], the system named is SN12C renal.
Experiment [12] relates to SNB-75 CNS.
In experiment [13] the test system is SR leukemia.
Experiment [14] has as its system SW-620 colon.
In experiment [15] the test system is UACC-62 melanoma.
The subject of experiment [16] is HCT-15 colon.
Experiment [17] relates to MCF7 breast.
Experiment [18] relates to RXF 393 renal.

By TGI is commonly meant the concentration at which net growth stops. In the case of `NNC(=S)NCCNC(=S)NN`, the TGI in [1], in [2], in [3], in experiment [4], in experiment [5] and in experiment [6] was greater than 100 µM throughout. For the same compound, the TGI in [7], in experiment [8], in experiment [9], in experiment [10], in [11] and in [12] was greater than 100 µM in each case. Besides, the TGI in [13], in experiment [14] and in [15] was greater than 100 µM each time.
On to `Clc1ccc(-c2cn3c(nc4ccccc43)c(/C=C/c3ccco3)n2)cc1`, for which the TGI in [2], in experiment [16], in [17], in experiment [3], in experiment [4] and in [6] was greater than 100 µM in each case. The TGI in experiment [7] is greater than 100 µM; in experiment [8], greater than 100 µM; in experiment [18] it was greater than 100 µM; in [10] it was 41.6 µM; in experiment [11], greater than 100 µM; in experiment [12], 83.5 µM. Besides, the TGI in experiment [13] is 41.4 µM; in [14] it was greater than 100 µM; in [15], greater than 100 µM.
Take `COc1c(-c2nc3nc(N4CCN(C)CC4)ccc3[nH]2)cc(OC)c2c1nc(COC(C)=O)n2C`: the TGI in [1], in experiment [16], in experiment [17], in experiment [3], in [4] and in [5] was greater than 100 µM each time. Besides, the TGI in experiment [6], in [7], in [8], in [9], in experiment [18] and in experiment [10] was greater than 100 µM each time. Besides, the TGI in [11] and in experiment [15] was greater than 100 µM throughout.
In the case of `CC(=O)Oc1c(N2CCCCC2)c(C(=O)c2ccccc2)c(O)c2ccn(N(C)C)c12`, the TGI came to 33.8 µM in experiment [1]; 37.2 µM in experiment [2]; 35.9 µM in experiment [16]; 30.6 µM in experiment [17]; 30.6 µM in experiment [3]; 38.1 µM in [4]. Further, the TGI in [5] was 49.8 µM; in experiment [6], 74.7 µM; in experiment [7] it was 58.2 µM; in experiment [8], greater than 100 µM; in experiment [9], 33.7 µM; in [18], 48.4 µM. Also, the TGI was 54.6 µM in [10]; 33.7 µM in experiment [11]; 32.5 µM in [12]; 35.1 µM in experiment [14]; 30.3 µM in [15].
For the compound `CCCCCCCCCCCCCCCCOP(=O)(O)OCC(N)C(=O)O` (stereo not given), the TGI in [1] is 28 µM; in [2], greater than 100 µM; in [16] it was 61.3 µM; in experiment [3], 47.4 µM; in experiment [4], 39.8 µM; in experiment [5], 29 µM. In addition, the TGI in experiment [6] is 41.1 µM; in experiment [7] it was 35.6 µM; in experiment [8], 45.1 µM; in experiment [9], 31.1 µM; in experiment [18], 55 µM; in experiment [10], 40.5 µM. Further, the TGI in experiment [11] was 37.1 µM; in experiment [12] it was 45.7 µM; in experiment [13], 61.4 µM; in [14] it was 38.6 µM; in experiment [15], 37 µM.
`Cc1oc2c(c1C)S(=O)(=O)C(C#N)=C(N(C)C)N2`: the TGI in experiment [1], in experiment [2], in experiment [16], in experiment [17], in experiment [3] and in experiment [4] was greater than 100 µM each time. Moreover, the TGI in experiment [5], in experiment [6], in experiment [7], in experiment [8], in experiment [9] and in experiment [10] was greater than 100 µM in each case. In addition, the total growth inhibition concentration (TGI) in experiment [11], in [12], in experiment [14] and in experiment [15] was greater than 100 µM throughout.
Consider `COc1ccc(C2C(C#N)=C(S)N(C3OC(COC(C)=O)C(OC(C)=O)C(OC(C)=O)C3OC(C)=O)C(c3ccccc3)=C2C(C)=O)cc1` (stereo not given), for which the TGI in [1], in [2], in experiment [16], in experiment [17], in [3] and in [4] was greater than 100 µM in each case. In addition, the TGI in [5], in experiment [6], in experiment [7], in experiment [8], in [9] and in [18] was greater than 100 µM in each case. Besides, the TGI in experiment [10], in [11], in experiment [12] and in experiment [15] was greater than 100 µM each time.
Turning to `CC(=O)Nc1c(S(=O)(=O)c2ccccc2)c(C)c(C)n1Cc1ccccc1`, the TGI in experiment [1], in experiment [2], in experiment [16], in [3], in [4] and in experiment [5] was greater than 100 µM each time. Besides, the TGI in [6], in [7], in experiment [8], in experiment [9], in experiment [18] and in [10] was greater than 100 µM in each case. Further, the TGI in experiment [11], in experiment [12], in experiment [14] and in experiment [15] was greater than 100 µM each time.
Consider `O=C(O)c1cnc(-n2[nH]c3c(c2=O)CCCC3)[nH]c1=O`, for which the TGI in experiment [1], in experiment [16], in experiment [3], in experiment [4], in [5] and in [7] was greater than 100 µM throughout. Besides, the total growth inhibition concentration (TGI) in experiment [8], in [9], in experiment [10], in experiment [11], in experiment [13] and in [14] was greater than 100 µM each time. Besides, the TGI in experiment [15] was greater than 100 µM.
On to `Cc1cccc(N2C(=O)C3c4[nH]c5ccccc5c4C4CCC(C(C)(C)C)CC4C3C2=O)c1` (stereo not given), for which the TGI in experiment [1] was 26.1 µM; in [16], greater than 100 µM; in experiment [17], 24.5 µM; in experiment [3], 21.3 µM; in experiment [4] it was 29.6 µM; in [5], 21.3 µM. In addition, the TGI in experiment [6] is 27.4 µM; in [7], 25.7 µM; in [8] it was 35.2 µM; in experiment [9], 24.8 µM; in [18] it was 26.3 µM; in experiment [10], 34.4 µM. The figures for the TGI in [11], in experiment [14] and in experiment [15] were 30.5 µM, 24.1 µM and 49 µM, respectively.
Take `CC(C)=CCC/C(C)=C/COc1c2ccoc2cc2oc(=O)ccc12`: the TGI was greater than 100 µM in experiment [1]; 79.7 µM in [2]; greater than 100 µM in experiment [16]; 61.4 µM in experiment [17]; 86.5 µM in experiment [3]; greater than 100 µM in experiment [4]. The TGI in [5] was 42.3 µM; in experiment [6] it was 57.6 µM; in experiment [7], greater than 100 µM; in experiment [8], 75.8 µM; in [9] it was greater than 100 µM; in experiment [10], 38.3 µM. The TGI is greater than 100 µM in [11], 43.1 µM in [13], greater than 100 µM in experiment [14] and 38.3 µM in experiment [15].
On to `Clc1cccc(NN=Nc2ccc(-c3nc4ccccc4s3)cc2)c1`, for which the TGI in experiment [1] is greater than 100 µM; in experiment [2] it was greater than 100 µM; in experiment [16] it was greater than 100 µM; in [17] it was greater than 100 µM; in experiment [4], greater than 100 µM; in experiment [5] it was 40.6 µM. In addition, the TGI was greater than 100 µM in experiment [6]; greater than 100 µM in experiment [7]; greater than 100 µM in experiment [8]; greater than 100 µM in [9]; 82.8 µM in experiment [18]; 48.1 µM in experiment [10]. Also, the TGI was 62.2 µM in [11]; 66.1 µM in experiment [12]; 43 µM in [13]; greater than 100 µM in experiment [14]; 51.8 µM in [15].
Take `C/C=C1\CN(C(=O)OC(C)(C)C)C1C(=O)OC(C)(C)C` (stereo not given): the TGI in [1], in experiment [2], in experiment [16], in experiment [17], in experiment [4] and in [5] was greater than 100 µM each time. Besides, the TGI in experiment [6], in experiment [7], in experiment [8], in experiment [9], in experiment [10] and in experiment [11] was greater than 100 µM throughout. Moreover, the TGI in [13], in experiment [14] and in experiment [15] was greater than 100 µM throughout.
Regarding `NC(CSSCC(N)=NCC12CC3CC(CC(C3)C1)C2)=NCC12CC3CC(CC(C3)C1)C2`, the total growth inhibition concentration (TGI) was 36.4 µM in experiment [1]; 25 µM in experiment [16]; greater than 100 µM in experiment [17]; 16.2 µM in [3]; 28.1 µM in experiment [4]; 16.9 µM in experiment [5]. In addition, the TGI in [6] was 35.6 µM; in [7], 45.3 µM; in experiment [8], 34.2 µM; in [9], 29.9 µM; in [18] it was greater than 100 µM; in [10] it was 55.1 µM. Moreover, the TGI in experiment [11] came out at 31.1 µM; in experiment [12] it was 45.2 µM; in [14], 41.6 µM; in experiment [15], 26.1 µM.
Regarding `CC1CC/C(=C\c2ccc(F)cc2)C(=O)/C1=C/c1ccc(F)cc1` (stereo not given), the TGI in experiment [1] was determined as 12.1 µM; in [16] it was 5.39 µM; in experiment [17] it was 16.6 µM; in experiment [3], 6.56 µM; in experiment [4], 28.4 µM; in experiment [5], 8.81 µM. In addition, the TGI in [6] was 28.1 µM; in experiment [8], 25.4 µM; in [9] it was 28.3 µM; in experiment [18] it was 9.98 µM; in experiment [10] it was 25.6 µM; in experiment [11] it was 9.9 µM. Also, the TGI in experiment [12] stood at 11.7 µM; in experiment [14] it was 87.6 µM; in experiment [15], 24.7 µM.
On to `C=C(C)COC1CCCCO1` (stereo not given), for which the TGI in [1], in experiment [2], in experiment [16], in experiment [17], in [3] and in experiment [4] was greater than 100 µM throughout. For the same compound, the TGI in experiment [5], in experiment [6], in [8], in [9], in [10] and in experiment [11] was greater than 100 µM each time. The TGI in experiment [12], in experiment [14] and in experiment [15] was greater than 100 µM in each case.
With `Cn1ncc2c(Cl)ncnc21`, the TGI in [1], in [2], in [16], in experiment [17], in [4] and in [5] was greater than 100 µM in each case. The TGI in experiment [6], in experiment [7], in [8], in experiment [9], in experiment [18] and in experiment [10] was greater than 100 µM each time. Moreover, the total growth inhibition concentration (TGI) in experiment [11], in experiment [12], in experiment [13], in [14] and in [15] was greater than 100 µM each time.
Consider `N=c1c2c(=S)n(-c3ccccc3)c(=S)n(-c3ccccc3)c2nc(SCCN2CCCC2)n1-c1ccccc1`, for which the TGI in experiment [1] was 3.11 µM; in experiment [2], 2.78 µM; in experiment [16], 3.86 µM; in [3], 3.52 µM; in experiment [4], 3.82 µM; in experiment [5], 3.35 µM. The TGI was 3.38 µM in experiment [6]; 7.58 µM in experiment [7]; 32.1 µM in experiment [8]; 3.3 µM in experiment [9]; 2.94 µM in [18]; 13.9 µM in experiment [10]. The figures for the TGI in [11], in experiment [12] and in experiment [15] were 3.46 µM, 8.29 µM and 3.04 µM, respectively.
